The source of these data is patent publication US20260077051A1, “COMPOUNDS FOR THE DEGRADATION OF EGFR KINASE” (BeOne Medicines I GmbH, priority 2023, published 2026).

Experiment [1] concerns the target T1, EGFR L858R (BaF3-L858R cells) (Homo sapiens, UniProt P00533, L858R).
T1 construct: host or cells: BaF3
The experiment can be described thus: EGFR degradation in BaF3-L858R cells (HTRF assay). Format: cell-based. The settings on record: 16 h treatment; for DC50: IC50(DC50) of EGFR degradation; for Dmax: maximum percentage of inhibition (degradation). Here is the method:
BaF3-L858R (abbv. L858R) cell were purchased from Kangyuan Bochuang Biotechnology (Beijing) Co., Ltd.
(§1) H1975-#8 and BaF3-L858R cells are treated with compounds diluted in 0.1% DMSO cell culture medium on day 2, incubate for 16 h, 37° C., 5% CO2. the final concentration of compounds in all assay is start with 10 uM, 5-fold dilution, total 8 doses were included.
(§2) After 16 h treatment, for H1975-#8 cells, add 100 ul HTRF 1× lysis buffer to each well; for BaF3-L858R cells, add 20 μl 4× lysis buffer to each well; seal the plate and incubate 1 hour at room temperature on a plate shaker; Once the cells are lysed, 16 μL of cell lysate are transferred to a PE 384-well HTRF detection plate; 4 μL of pre-mixed HTRF antibodies are added to each well; Cover the plate with a plate sealer, spin 1000 rpm for 1 min, Incubate overnight at room temperature; Read on BMG PheraStar with HTRF protocol (337 nm-665 nm-620 nm).
(§3) The inhibition (degradation) percentage of the compound was calculated by the following equation:
(§4) High control=Cell group with added DMSO and without compound, indicating microplate readings without EGFR degradation;
(§5) Dmax is the maximum percentage of inhibition (degradation).
(§6) The IC50(DC50) value of a compound can be obtained by fitting the following equation
(§7) Wherein, X and Y are known values, and IC50, Hillslope, Top and Bottom are the parameters obtained by fitting with software. Y is the inhibition percentage (calculated from the equation), X is the concentration of the compound; IC50 is the concentration of the compound when the 50% inhibition is reached. The smaller the IC50 value is, the stronger the inhibitory ability of the compound is. Vice versa, the higher the IC50 value is, the weaker the ability the inhibitory ability of the compound is; Hillslope represents the slope of the fitted curve, generally around 1*; Bottom represents the minimum value of the curve obtained by data fitting, which is generally 0%±20%; Top represents the maximum value of the curve obtained by data fitting, which is generally 100%±20%. The experimental data were fitted by calculating and analyzing with Dotmatics data analysis software.

Experiment [2] has as its target T2, EGFR-L858R/C797S (H1975-clone #8 cells) (Homo sapiens, UniProt P00533, C797S/L858R).
T2 construct: expressed in transfected cells; host or cells: H1975 (lentiviral transduction, endogenous EGFR knocked out, single clone #8)
Briefly: EGFR degradation in H1975-clone#8 (L858R/C797S) cells (HTRF assay). Format: cell-based. The settings on record: 16 h treatment; for DC50: IC50(DC50) of EGFR degradation; for Dmax: maximum percentage of inhibition (degradation). As for the experimental part:
H1975-clone #8 (L858R/C797S): EGFR-L858R/C797S were stably expressed in H1975 cell lines by lentivirus-mediated over-expression, respectively. The EGFR over-expressed cells then underwent knockout, in which the EGFR targeting sgRNA was designed to only target the endogenous EGFR copies and preserve the exogenous EGFR copies. Followed by the knockout, the edited H1975 cells were seeded in 96 well plates at the concentration of […], cultured for about 2 weeks to allow single clones formation. The formed clones were screened by DNA sequencing and whole exon sequencing analysis for the desired edition. H1975-clone #8 were finally confirmed as homozygous L858R/C797S EGFR clones.
as §1, §2, §3, §4, §5, §6, §7
(In general: In TR-FRET formats the signal depends on donor and acceptor labels being close together.)

T2 sequence (P00533 25-1210 C797S/L858R): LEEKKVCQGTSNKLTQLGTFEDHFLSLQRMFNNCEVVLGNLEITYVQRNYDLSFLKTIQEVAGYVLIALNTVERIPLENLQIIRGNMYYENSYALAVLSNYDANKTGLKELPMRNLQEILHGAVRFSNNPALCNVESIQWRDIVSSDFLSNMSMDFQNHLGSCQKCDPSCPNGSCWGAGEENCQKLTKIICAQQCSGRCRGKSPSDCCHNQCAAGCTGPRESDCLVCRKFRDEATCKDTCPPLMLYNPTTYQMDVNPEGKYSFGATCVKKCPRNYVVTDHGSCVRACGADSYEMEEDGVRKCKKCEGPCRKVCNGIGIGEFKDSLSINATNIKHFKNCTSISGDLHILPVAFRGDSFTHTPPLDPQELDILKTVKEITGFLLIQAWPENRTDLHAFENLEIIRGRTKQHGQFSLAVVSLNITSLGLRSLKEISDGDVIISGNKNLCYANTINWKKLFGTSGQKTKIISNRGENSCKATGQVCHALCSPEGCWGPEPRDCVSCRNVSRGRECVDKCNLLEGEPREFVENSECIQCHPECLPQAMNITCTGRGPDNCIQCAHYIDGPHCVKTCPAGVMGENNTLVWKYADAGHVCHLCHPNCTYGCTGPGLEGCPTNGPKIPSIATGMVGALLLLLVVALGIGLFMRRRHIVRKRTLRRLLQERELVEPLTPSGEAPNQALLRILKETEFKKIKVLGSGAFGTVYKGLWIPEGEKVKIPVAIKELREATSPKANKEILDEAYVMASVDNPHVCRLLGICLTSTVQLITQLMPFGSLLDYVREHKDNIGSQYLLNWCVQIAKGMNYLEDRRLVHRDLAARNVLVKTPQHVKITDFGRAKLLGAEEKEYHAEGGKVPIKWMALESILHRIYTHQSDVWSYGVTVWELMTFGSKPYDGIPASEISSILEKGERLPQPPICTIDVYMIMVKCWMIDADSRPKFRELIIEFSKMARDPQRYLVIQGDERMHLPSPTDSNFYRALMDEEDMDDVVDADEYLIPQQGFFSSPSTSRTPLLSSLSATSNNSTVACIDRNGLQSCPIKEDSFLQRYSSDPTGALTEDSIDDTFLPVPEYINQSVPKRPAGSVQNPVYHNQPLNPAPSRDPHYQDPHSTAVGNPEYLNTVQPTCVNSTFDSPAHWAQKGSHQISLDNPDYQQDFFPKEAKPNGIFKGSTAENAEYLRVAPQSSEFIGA
T1 sequence (P00533 25-1210 L858R): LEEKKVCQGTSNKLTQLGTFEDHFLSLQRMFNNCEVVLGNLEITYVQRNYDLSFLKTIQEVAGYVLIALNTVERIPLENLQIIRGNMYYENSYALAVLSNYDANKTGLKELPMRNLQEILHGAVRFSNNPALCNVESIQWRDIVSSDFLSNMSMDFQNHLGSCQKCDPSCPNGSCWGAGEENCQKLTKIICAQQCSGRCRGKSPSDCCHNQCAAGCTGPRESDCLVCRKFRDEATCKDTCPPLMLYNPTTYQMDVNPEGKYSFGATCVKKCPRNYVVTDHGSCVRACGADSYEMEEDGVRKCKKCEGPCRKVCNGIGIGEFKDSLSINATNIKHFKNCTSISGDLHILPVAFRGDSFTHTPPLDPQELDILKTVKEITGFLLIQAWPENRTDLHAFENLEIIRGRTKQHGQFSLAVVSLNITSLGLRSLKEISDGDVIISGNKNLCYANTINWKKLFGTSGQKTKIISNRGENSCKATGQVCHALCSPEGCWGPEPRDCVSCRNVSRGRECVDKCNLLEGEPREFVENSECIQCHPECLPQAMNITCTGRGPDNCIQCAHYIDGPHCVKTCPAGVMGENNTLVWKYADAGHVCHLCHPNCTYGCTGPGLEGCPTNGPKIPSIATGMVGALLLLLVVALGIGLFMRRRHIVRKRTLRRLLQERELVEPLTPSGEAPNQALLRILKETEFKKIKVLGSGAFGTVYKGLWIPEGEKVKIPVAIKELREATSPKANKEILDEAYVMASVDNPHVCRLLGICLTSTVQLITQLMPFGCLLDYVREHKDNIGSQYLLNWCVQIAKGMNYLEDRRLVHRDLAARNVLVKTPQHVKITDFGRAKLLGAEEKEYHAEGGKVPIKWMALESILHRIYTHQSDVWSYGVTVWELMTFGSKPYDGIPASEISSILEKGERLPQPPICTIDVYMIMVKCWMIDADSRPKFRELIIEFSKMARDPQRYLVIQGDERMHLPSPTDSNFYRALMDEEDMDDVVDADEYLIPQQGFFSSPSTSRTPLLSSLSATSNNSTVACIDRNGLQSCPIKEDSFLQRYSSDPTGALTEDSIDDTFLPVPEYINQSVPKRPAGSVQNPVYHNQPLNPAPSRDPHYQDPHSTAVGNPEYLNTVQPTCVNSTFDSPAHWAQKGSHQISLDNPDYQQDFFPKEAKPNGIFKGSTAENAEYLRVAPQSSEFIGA

As for `CCc1nc(C2CCC(=O)NC2=O)ccc1N1CCC(N2CCN(c3ccc4c(c3)N3C[C@H]5C[C@@H]5CCOc5c(cnn5C)-c5cc(cc(C)n5)C(=O)/N=C/3N4)CC2)CC1` (stereo partly drawn) [Example 14, 3-(5-(4-(4-4((7^1S,7^2R,E)-1^1,2^6-dimethyl-3-oxo-5^2,5^3-dihydro-1^1H,5^1H-10-oxa-4-aza-5 (2,1)-benzo[d]imidazola-2 (2,4)-pyridina-1 (4,5)-pyrazola-7 (1,2)-cyclopropanacyclodecaphane-5^6-yl)piperazin-1-yl)piperidin-1-yl)-6-ethylpyridin-2-yl)piperidine-2,6-dione], in experiment [1], the 50% degradation concentration (DC50) worked out at 9.37 nM and the maximal degradation (Dmax) is 84.4%. In experiment [2], this molecule yielded a half-maximal degradation concentration (DC50) of 5.8 nM and a Dmax of 51.4%.
On the same counts, the results for `Cc1cc2cc(n1)-c1cnn(C)c1OCC[C@H]1C[C@@H]1CN1/C(=N/C2=O)Nc2ccc(N3CCN([C@@H]4CCN(c5cc(F)c(C6CCC(=O)NC6=O)nc5C)C[C@@H]4F)CC3)cc21` (stereo partly drawn) [Example 34, 3-(5-((3S,4R)-4-(4-((7^1S,7^2R,E)-1^1,2^6-dimethyl-3-oxo-5^2,5^3-dihydro-1^1H,5^1H-10-oxa-4-aza-5 (2,1)-benzo[d]imidazola-2 (2,4)-pyridina-1 (4,5)-pyrazola-7 (1,2)-cyclopropanacyclodecaphane-5^6-yl)piperazin-1-yl)-3-fluoropiperidin-1-yl)-3-fluoro-6-methylpyridin-2-yl)piperidine-2,6-dione] are 7.47 nM, 83.8%, 11.9 nM and 57%.
With `CCc1nc(C2CCC(=O)NC2=O)ccc1N1CC[C@H](N2CCN(c3ccc4c(c3)N3C[C@H]5C[C@@H]5CCOc5c(cnn5C)-c5cc(cc(C)n5)C(=O)/N=C/3N4)CC2)[C@H](F)C1` (stereo partly drawn) [Example 31, 3-(5-((3R,4S)-4-(4-((7^1S,7^2R,E)-1^1,2^6-dimethyl-3-oxo-5^2,5^3-dihydro-1^1H,5^1H-10-oxa-4-aza-5 (2,1)-benzo[d]imidazola-2 (2,4)-pyridina-1 (4,5)-pyrazola-7 (1,2)-cyclopropanacyclodecaphane-5^6-yl)piperazin-1-yl)-3-fluoropiperidin-1-yl)-6-ethylpyridin-2-yl)piperidine-2,6-dione], the figures for the DC50 in experiment [1] and in experiment [2] were 4.61 nM and 9.56 nM, respectively. Moreover, the figures for the greatest degradation seen (Dmax) in experiment [1] and in experiment [2] were 89.5% and 69.3%, respectively.
On the same counts, the results for `Cc1cc2cc(n1)-c1cnn(C)c1OCC[C@H]1C[C@@H]1CN1/C(=N/C2=O)Nc2ccc(N3CCN(C4CN(C5CCN(c6ccc(C7CCC(=O)NC7=O)nc6C)CC5)C4)CC3)cc21` (stereo partly drawn) [Example 20, 3-(5-(4-(3-(4-((7^1S,7^2R,E)-1^1,2^6-dimethyl-3-oxo-5^2,5^3-dihydro-1^1H,5^1H-10-oxa-4-aza-5 (2,1)-benzo[d]imidazola-2 (2,4)-pyridina-1 (4,5)-pyrazola-7 (1,2)-cyclopropanacyclodecaphane-5^6-yl)piperazin-1-yl)azetidin-1-yl)piperidin-1-yl)-6-methylpyridin-2-yl)piperidine-2,6-dione] are 12.4 nM, 0.603 nM, 86.8% and 59.1%.
On the same counts, the results for `Cc1cc2cc(n1)-c1cnn(C)c1OCC[C@H]1C[C@@H]1CN1/C(=N/C2=O)Nc2ccc(N3CCN(C4CCN(c5ccc(C6CCC(=O)NC6=O)nc5C)CC4)C[C@@H]3C)cc21` (stereo partly drawn) [Example 3, 3-(5-(4-((S)-4-((7^1S,7^2R,E)-1^1,2^6-dimethyl-3-oxo-5^2,5^3-dihydro-1^1H,5^1H-10-oxa-4-aza-5 (2,1)-benzo[d]imidazola-2 (2,4)-pyridina-1 (4,5)-pyrazola-7 (1,2)-cyclopropanacyclodecaphane-5-yl)-3-methylpiperazin-1-yl)piperidin-1-yl)-6-methylpyridin-2-yl)piperidine-2,6-dione] are 11.6 nM, 3.1 nM, 85.5% and 65.2%.
Consider `Cc1cc2cc(n1)-c1cnn(C)c1OCC[C@H]1C[C@@H]1CN1/C(=N/C2=O)Nc2ccc(N3CCN(C4CCN(c5cccc6c5C(C)(C)C(=O)N6C5CCC(=O)NC5=O)CC4)CC3)cc21` (stereo partly drawn) [Example 18, 3-(4-(4-(4-((7^1S,7^2R,E)-1^1,2^6-dimethyl-3-oxo-5^2,5^3-dihydro-1^1H,5^1H-10-oxa-4-aza-5 (2,1)-benzo[d]imidazola-2 (2,4)-pyridina-1 (4,5)-pyrazola-7 (1,2)-cyclopropanacyclodecaphane-5^6-yl)piperazin-1-yl)piperidin-1-yl)-3,3-dimethyl-2-oxoindolin-1-yl)piperidine-2,6-dione], for which, in experiment [1], half-maximal degradation (DC50) was put at 6.69 nM and the Dmax is 84.6%. In experiment [2], this molecule returned a DC50 of 5.12 nM and a maximal degradation (Dmax) of 66.3%.
On to `Cc1cc2cc(n1)-c1cnn(C)c1OCC[C@H]1C[C@@H]1CN1/C(=N/C2=O)Nc2ccc(N3CCN(C4CCN(c5cc(F)c(C6CCC(=O)NC6=O)nc5C)CC4)CC3)cc21` (stereo partly drawn) [Example 16, 3-(5-(4-(4-((7^1S,7^2R,E)-1^1,2^6-dimethyl-3-oxo-5^2,5^3-dihydro-1^1H,5^1H-10-oxa-4-aza-5 (2,1)-benzo[d]imidazola-2 (2,4)-pyridina-1 (4,5)-pyrazola-7 (1,2)-cyclopropanacyclodecaphane-5^6-yl)piperazin-1-yl)piperidin-1-yl)-3-fluoro-6-methylpyridin-2-yl)piperidine-2,6-dione], for which the DC50 in experiment [1] is 18 nM; in experiment [2] it was 7.82 nM. In addition, the Dmax is 76.4% in experiment [1] and 73.3% in experiment [2].
On the same counts, the results for `COC[C@@H]1CN(c2ccc3c(c2)N2C[C@@H]4C[C@@]4(C)CCOc4c(cnn4C)-c4cc(cc(C)n4)C(=O)/N=C/2N3)CCN1C1CCN(c2cc(F)c([C@H]3CCC(=O)NC3=O)c(F)c2)CC1` [Example 26, (R)-3-(2,6-difluoro-4-(4-((S)-2-(methoxymethyl)-4-((7^1R,7^2S,E)-1^1,2^6,7^2-trimethyl-3-oxo-5^2,5^3-dihydro-1^1H,5^1H-10-oxa-4-aza-5 (2,1)-benzo[d]imidazola-2 (2,4)-pyridina-1 (4,5)-pyrazola-7 (1,2)-cyclopropanacyclodecaphane-5^6-yl)piperazin-1-yl)piperidin-1-yl)phenyl)piperidine-2,6-dione] are 4.02 nM, 3.41 nM, 85.7% and 58.9%.
On the same counts, the results for `CCc1nc(C2CCC(=O)NC2=O)ccc1N1CC[C@@H](N2CCN(c3ccc4c(c3)N3C[C@H]5C[C@@H]5CCOc5c(cnn5C)-c5cc(cc(C)n5)C(=O)/N=C/3N4)CC2)[C@@H](F)C1` (stereo partly drawn) [Example 32, 3-(5-((3S,4R)-4-(4-((7^1S,7^2R,E)-1^1,2^6-dimethyl-3-oxo-5^2,5^3-dihydro-1^1H,5^1H-10-oxa-4-aza-5 (2,1)-benzo[d]imidazola-2 (2,4)-pyridina-1 (4,5)-pyrazola-7 (1,2)-cyclopropanacyclodecaphane-5^6-yl)piperazin-1-yl)-3-fluoropiperidin-1-yl)-6-ethylpyridin-2-yl)piperidine-2,6-dione] are 6.44 nM, 10.5 nM, 84.5% and 60.9%.

Usually DC50 stands for the concentration giving 50% degradation. As a reminder, the Dmax is the largest share of the target that was removed. Low values mean shallow degradation, high ones deep degradation.
